Data set [1] is described as follows: Parallel artificial membrane permeability assay (PAMPA). The settings on record: 10µM, PBS pH 7.4/7.4, 6h at room temperature, LC-MS/MS. As to the method: Solutions of the compounds were prepared in duplicate by diluting the stock solutions (10 mM) in phosphate buffered saline (PBS) pH 7.4 at a final concentration of 10 μM (5% DMSO). The solutions diluted in PBS pH 7.4 were then added to the donor portion of the plate (300 μL/well), while in the acceptor portion PBS pH 7.4 (200 μL/well) was added. The two portions of the plate were then coupled, and the system was incubated for 6 h at room temperature. Samples of the initial donor solution (T0) were collected at the beginning (T0) and stored at 5 °C. The final concentrations of compounds in the donor, acceptor and T0 wells were quantified by LC-MS/MS.
A general note: The PAMPA barrier holds no transporters, so it reflects passive diffusion.

Data set [2] deals with Leishmania braziliensis promastigotes. Nature of the data set: Leishmanicidal activity, promastigote growth (SYBR Green, 72 h). The conditions noted are these: Leishmania braziliensis, L. braziliensis promastigotes, max 200 μM. Type of data set: cell-based, Leishmania (V.) braziliensis (MHOM/BR/1975/M2904). A digest of the protocol: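 Promastigotes seeded at 4 × 10^6 parasites/mL with compounds in decreasing concentrations up to 200 μM, 0.5% DMSO final, 72 h.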

Data set [3] addresses T1, HsDHODH (Homo sapiens, UniProt Q02127).
T1 construct: made in house
Nature of the data set: Selectivity assay: HsDHODH single-dose inhibition (DCIP reduction). Format: biochemical. A digest of the protocol: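 Recombinant human DHODH at 20 nM final, purified by Ni-NTA affinity, tested at a single compound concentration in triplicate. DCIP reduction followed at 610 nm every 3 s over 60 s. Velocity expressed as % activity relative to enzyme control without compound.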

Data set [4] can be described thus: Cell viability / cytotoxicity assay (PrestoBlue, 72 h). Format: cell-based. The settings on record: human; THP-1 cell line, 72 h, max 200 μM; read-out: CC50. A digest of the protocol:
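PMA-differentiated THP-1 cells (150 ng/mL PMA, 48 h; then 24 h in fresh medium) were exposed to compounds in serial dilution from 200 μM for 72 h at 37 °C, 5% CO2. Viability was read by PrestoBlue fluorescence (ex 560/em 590 nm) after 2 h.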

The conditions of data set [5]: mouse liver microsomes, 0.4 mg/ml, 1 µM; NCF = no cofactor control. For orientation: Microsomes from liver hold many membrane-bound enzymes, among them those of drug oxidation.

Structures are written as SMILES. Read-outs that look alike come from different tables or passages of the source.

The term EC50 denotes the concentration at which the effect is half-maximal. A higher EC50 goes with weaker potency. As usually defined, the CC50 is the concentration at which the toxic effect on the cells reaches its halfway point.

T1 sequence (Q02127 whole entry): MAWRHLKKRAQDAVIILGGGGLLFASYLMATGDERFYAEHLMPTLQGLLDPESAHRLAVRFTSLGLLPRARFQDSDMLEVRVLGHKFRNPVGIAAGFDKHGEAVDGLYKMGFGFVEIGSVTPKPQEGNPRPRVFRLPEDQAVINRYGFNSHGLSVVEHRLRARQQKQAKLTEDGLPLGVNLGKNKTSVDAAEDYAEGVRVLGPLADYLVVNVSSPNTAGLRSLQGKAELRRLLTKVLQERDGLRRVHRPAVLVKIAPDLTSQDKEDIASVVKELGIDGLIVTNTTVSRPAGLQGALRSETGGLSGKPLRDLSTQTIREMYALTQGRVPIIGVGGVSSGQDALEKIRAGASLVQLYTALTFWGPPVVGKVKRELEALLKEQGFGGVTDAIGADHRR

Take `O=C1NC(=O)C(=Cc2ccc(O)c([N+](=O)[O-])c2)C(=O)N1` [2d, 5-(4-Hydroxy-3-nitrobenzylidene)pyrimidine-2,4,6(1H,3H,5H)-trione]: in data set [1], the “Remarks (PAMPA)” value is “Poor detection sensitivity/Compound might be unstable in assay matrix”. For the same molecule, in data set [2], the EC50 was found to be 152 ± 28 µM. Besides, the figures for the activity at 100 µM in data set [3] (read-out: Single dose (0h) % activity) and in data set [3] (read-out: Single dose (4h) % activity) were 90 ± 10% and 92 ± 9%, respectively. Also, the CC50 at 72 h in data set [4] was more than 200 µM. Further, the “Remarks (mouse microsomal stability study)” value in data set [5] is reported as “Poor detection sensitivity/Compound might be unstable in assay matrix”.
